{
  "source": "patent US11840686B2",
  "about": "“Modulation of prekallikrein (PKK) expression” (Ionis Pharmaceuticals, Inc., priority 2013, dated 2023)",
  "key": {"PKK mRNA": {"system": "PKK mRNA", "test": "PKK mRNA in cynomolgus monkey liver (Example 8)", "format": "in vivo", "details": "primates, Example 8", "summary_of_the_method": "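Cynomolgus monkeys were dosed with human antisense oligonucleotides cross-reactive with the rhesus sequence. Liver RNA taken on day 87 or 88, 48 h after the last dose, was assayed by real-time PCR (primer probe set RTS3455) and normalized to cyclophilin. Values are percent PKK mRNA inhibition versus PBS control.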"}, "[1]": {"test": "Tail bleeding assay (Example 20)", "format": "in vivo, mouse", "details": "BALB/c mice; for Bleeding: blood collected over 40 minutes", "procedure": "Tail-bleeding was measured to observe whether treatment with ISIS 482584 causes excess bleeding or hemorrhage in mice.\nGroups of 10 male BALB/c mice were treated with 10 mg/kg, 20 mg/kg, or 40 mg/kg of ISIS 482584, administered subcutaneously twice a week for 3 weeks (weekly doses of 20 mg/kg, 40 mg/kg, or 80 mg/kg). A control group of 8 BALB/c mice was treated with PBS, administered subcutaneously twice a week for 3 weeks.\nTwo days after the final treatment of ISIS oligonucleotides or PBS, mice were placed in a tail bleeding chamber. Mice were anesthetized in the chamber with isoflurane. Then, a small piece of tail (approximately 4 mm from the tip) was cut with sterile scissors. The cut tail was immediately placed in a 15 mL Falcon tube filled with approximately 10 mL of 0.9% NaCl buffer solution warmed to 37° C. The blood was collected over the course of 40 minutes. The saline filled tubes were weighed both before and after bleeding."}, "human PKK mRNA [2]": {"system": "human PKK mRNA", "test": "Antisense inhibition of human PKK mRNA in HepaRG cells, 3,000 nM (Example 1)", "format": "cell-based", "details": "Table 4; HepaRG cells, electroporation with 3,000 nM antisense oligonucleotide, approx. 24 hours; PKK mRNA by RT-PCR (RTS3454), relative to untreated control cells", "summary_of_the_method": "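Values give percent PKK mRNA reduction relative to untreated controls, normalised to RIBOGREEN total RNA. mRNA was quantified by real-time PCR (RTS3454) about 24 h after electroporation. Each 20-mer MOE gapmer was delivered at 3,000 nM into 20,000 HepaRG cells per well.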"}, "human PKK mRNA [3]": {"system": "human PKK mRNA", "test": "Antisense inhibition of human PKK mRNA in HepaRG cells, 1,000 nM, MOE/deoxy/cEt oligonucleotides (Example 3)", "format": "cell-based", "summary_of_the_method": "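Readout is percent PKK mRNA reduction against untreated controls, by real-time PCR (RTS3454) adjusted for total RNA via RIBOGREEN. Oligonucleotides, phosphorothioate gapmers of 16 nucleosides with cEt, MOE and deoxy sugars, were delivered at 1,000 nM by electroporation to 20,000 HepaRG cells/well for roughly 24 h.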"}},
  "note": "Strand notation (5' to 3'): a small letter for the sugar, then the base; units joined by * are phosphorothioate-linked, units joined directly phosphodiester-linked; [ ] holds rarer units or linkages, { } end groups; capitals alone tell only the bases. e = 2'-O-(2-methoxyethyl) (MOE); [5mC] = 5-methylcytosine; d = 2'-deoxy (DNA)",
  "data": [
    {"substance": "Tes Ges mCes Aes Aes Gds Tds mCds Tds mCds Tds Tds Gds Gds mCds Aes Aes Aes mCes Ae [ISIS 546254]", "values": [
      {"measurement": "inhibiting PKK mRNA and protein expression in primates", "setting": "PKK mRNA", "value": "effective for inhibiting PKK mRNA and protein expression"}
    ]},
    {"substance": "ISIS 482584: 5-10-5 MOE gapmer targeting murine PKK, GGCATATTGGTTTTTGGAAT; SEQ ID NO: 2244 (antisense eG*eG*e[5mC]*eA*eT*dA*dT*dT*dG*dG*dT*dT*dT*dT*dT*eG*eG*eA*eA*eT)", "values": [
      {"measurement": "Bleeding", "setting": "[1]; 20 mg/kg/wk sc 3 weeks", "value": 0.03, "unit": "mL"},
      {"measurement": "Bleeding", "setting": "[1]; 40 mg/kg/wk sc 3 weeks", "value": 0.14, "unit": "mL"},
      {"measurement": "Bleeding", "setting": "[1]; 80 mg/kg/wk sc 3 weeks", "value": 0.07, "unit": "mL"},
      {"measurement": "tail bleeding", "setting": "[1]; 10-40 mg/kg s.c. twice a week for 3 weeks", "value": "did not significantly affect bleeding"}
    ]},
    {"substance": "531231 (eT*eA*eT*e[5mC]*eA*d[5mC]*dT*dG*dT*dA*d[5mC]*dT*dA*dG*dT*eT*eT*e[5mC]*e[5mC]*eT) [compound 531231]", "values": [
      {"measurement": "% inhibition", "setting": "human PKK mRNA [2]", "value": 94, "unit": "%"},
      {"measurement": "% inhibition", "setting": "human PKK mRNA [3]; HepaRG cells, 1,000 nM antisense oligonucleotide, Table 29", "value": 46, "unit": "%"},
      {"measurement": "% inhibition", "setting": "human PKK mRNA [3]; HepaRG cells, electroporation with 1,000 nM antisense oligonucleotide, approx. 24 hours, PKK mRNA by RT-PCR (RTS3454), relative to untreated control cells, Table 25 experiment", "value": 19, "unit": "%"},
      {"measurement": "% inhibition", "setting": "human PKK mRNA [3]; HepaRG cells, electroporation with 1,000 nM antisense oligonucleotide, approx. 24 hours, PKK mRNA by RT-PCR (RTS3454), relative to untreated control cells, Table 26 experiment", "value": 42, "unit": "%"},
      {"measurement": "% inhibition", "setting": "human PKK mRNA [3]; HepaRG cells, electroporation with 1,000 nM antisense oligonucleotide, approximately 24 hours, primer probe set RTS3454, relative to untreated control cells, experiment of Table 23", "value": 16, "unit": "%"},
      {"measurement": "% inhibition", "setting": "human PKK mRNA [3]; HepaRG cells, electroporation with 1,000 nM antisense oligonucleotide, approximately 24 hours, primer probe set RTS3454, relative to untreated control cells, experiment of Table 24", "value": 0, "unit": "%"},
      {"measurement": "% inhibition", "setting": "human PKK mRNA [3]; PKK mRNA, HepaRG cells, 1,000 nM antisense oligonucleotide, Table 31", "value": 48, "unit": "%"},
      {"measurement": "% inhibition", "setting": "human PKK mRNA [3]; Table 21 experiment, HepaRG cells, electroporation with 1,000 nM antisense oligonucleotide, approx. 24 hours, PKK mRNA by RT-PCR (RTS3454), relative to untreated control cells", "value": 62, "unit": "%"},
      {"measurement": "% inhibition", "setting": "human PKK mRNA [3]; Table 22 experiment, HepaRG cells, electroporation with 1,000 nM antisense oligonucleotide, approx. 24 hours, PKK mRNA by RT-PCR (RTS3454), relative to untreated control cells", "value": 75, "unit": "%"},
      {"measurement": "% inhibition", "setting": "human PKK mRNA [3]; Table 27, HepaRG cells, 1,000 nM antisense oligonucleotide, human PKK mRNA", "value": 72, "unit": "%"},
      {"measurement": "% inhibition", "setting": "human PKK mRNA [3]; Table 28, HepaRG cells, 1,000 nM antisense oligonucleotide, human PKK mRNA", "value": 46, "unit": "%"},
      {"measurement": "% inhibition", "setting": "human PKK mRNA [3]; Table 30, human PKK mRNA, HepaRG cells, 1,000 nM antisense oligonucleotide", "value": 46, "unit": "%"}
    ]}
  ]
}
